Measured values taken from patent publication US5063247A, “Diphenylurea derivatives” (Mitsubishi Kasei Corporation, priority 1989, dated 1991).

Tests used:
cholesterol in serum [1] = assay: Effect of reducing lipid level in blood: percent inhibition of cholesterol in serum of hamsters fed 1% cholesterol and 0.5% cholic acid diet; assay type: in vivo, Male golden Syrian hamsters; settings: Mesocricetus auratus, po, 120 h, orally once a day for 5 days, relative to control group
Procedure: The effect of reducing a lipid level in blood by the action of the compounds according to the present invention was determined as follows:
Male golden Syrian hamsters weighing from 80 to 100 g were randomly divided into groups. The hamsters were first fed standard laboratory diets (solid feed MF-1 for mouse/rat/hamster, manufactured by Oriental Yeast Industries, KK) for 3 days. Then, they were fed the experimental diet containing 1% cholesterol and 0.5% cholic acid (manufactured by Oriental Yeast Industries, KK), ad libitum. At the same time, the compounds of the invention formulated in a shown dose (25 mg or 50 mg/10 ml water/kg) were administrated to the animals orally once a day at a determined time for 5 days. Water was administrated orally to the hamsters of control group in an amount of 10 ml per 1 kg of body weight. After five days of administrating the compounds, they were anesthetized with Pentobarbital Na (Nembutal injection, manufactured by Dainabbot) and three hours after the final administration of the test compound, a blood samples (2-3 ml) was taken from abdominal cava. The serum was separated by centrifuging.
The cholesterol level in the serum was determined by using a blood cholesterol measuring kit, Determina-TC5 manufactured by Kyowa Medix Co. The results are represented by percent inhibition (%) of cholesterol level in serum relative to that of the control group, and shown in the following Table 4, each compound number corresponding to that in the above Table 3.

[2] = molecular target: ACAT (acyl coenzyme cholesterol acyltransferase); assay: ACAT inhibitory action in hamster microsomes (cholesteryl-[14C] oleate formation); assay type: biochemical; settings: radio-labelled oleoyl coenzyme A
Procedure: The ACAT inhibitory action of the compounds according to the present invention was measured as follows:
ACAT activity in the hamster microsomes was determined by measuring the rate of radio-active cholesteryl-[^14 C] oleate formation from cholesterol and radio-labelled oleoyl coenzyme A (^14 C) with or without test compound.
Calculations of IC50 value were made using data of the percent inhibition at each compound concentration. The results are shown in the following Table 5, each compound number corresponding to that in Table 3.

Acute toxicity test = settings: rat, in vivo, po; P.O., suspended in 1% tragacanth solution, SD male and female rats, seven day observation
Source text: A compound according to the present invention suspended in a 1% tragacanth solution was administrated orally to SD male and female rats. Then, the number of fatal rats was counted during seven day observation. The LD50 value is shown in the following Table 6, the compound number corresponding to that in the above Table 3.

cholesterol in serum [3] = assay: Effect of reducing lipid level in blood: percent inhibition of cholesterol in serum of hamsters fed 1% cholesterol and 0.5% cholic acid diet; assay type: in vivo, Male golden Syrian hamsters; settings: Mesocricetus auratus, po, 120 h, orally once a day for 5 days, relative to control group; remark: listed apart in the source

CCCCCCCCc1ccc(NC(=O)Nc2c(C)cccc2C)cc1 [compound 5]
inhibition in vivo at 25 mg/kg (cholesterol in serum [1]): 44%

CCCCCCCCc1ccc(NC(=O)Nc2c(OC)cccc2OC)cc1 [compound 12]
inhibition in vivo at 25 mg/kg (cholesterol in serum [1]): 54%

CCCCCc1ccc(NC(=O)Nc2c(C(C)C)cccc2C(C)C)cc1 [compound 16]
inhibition in vivo at 25 mg/kg (cholesterol in serum [1]): 34%

CCCCCCc1ccc(NC(=O)Nc2c(C(C)C)cccc2C(C)C)cc1 [compound 17]
inhibition in vivo at 25 mg/kg (cholesterol in serum [1]): 60% | IC50 [2]: 11 nM

CCCCCCCCc1ccc(NC(=O)Nc2c(Cl)ccc(C)c2Cl)cc1 [compound 11]
inhibition in vivo at 25 mg/kg (cholesterol in serum [1]): 47%

CCCCCCCCc1ccc(NC(=O)Nc2c(C(C)C)cccc2C(C)C)cc1 [Compound No. 8]
inhibition in vivo at 25 mg/kg (cholesterol in serum [1]): 55% | LD50 at 168 h (Acute toxicity test): > 2000 mg/kg | inhibition in vivo at 5 mg/kg (cholesterol in serum [3]): 35% | IC50 [2]: 4 nM

CCCCCCCCc1ccccc1NC(=O)Nc1c(C(C)C)cccc1C(C)C [compound 13]
inhibition in vivo at 25 mg/kg (cholesterol in serum [1]): 54%

CCCCCCCc1ccc(NC(=O)Nc2c(C(C)C)cccc2C(C)C)cc1 [compound 18]
inhibition in vivo at 25 mg/kg (cholesterol in serum [1]): 49% | IC50 [2]: 6 nM

CC(C)c1cccc(C(C)C)c1NC(=O)Nc1ccc(C(C)(C)C)cc1 [Compound No. 26, reference compound]
inhibition in vivo at 25 mg/kg (cholesterol in serum [1]): 19%

CCCCCCCCc1ccc(NC(=O)Nc2c(CC)cccc2CC)cc1 [compound 7]
inhibition in vivo at 25 mg/kg (cholesterol in serum [1]): 48%

CCCCCCCCCc1ccc(NC(=O)Nc2c(C(C)C)cccc2C(C)C)cc1 [Compound No. 19, 1-(4-nonylphenyl)-3-(2,6-diisopropylphenyl)urea]
inhibition in vivo at 25 mg/kg (cholesterol in serum [1]): 64% | IC50 [2]: 10 nM

CCCCCCCCc1ccc(NC(=O)Nc2c(Cl)cccc2Cl)cc1 [Compound No. 2, 1-(4-octylphenyl)-3-(2,6-dichlorophenyl)urea]
inhibition in vivo at 25 mg/kg (cholesterol in serum [1]): 49%

CCCCCCCCCCc1ccc(NC(=O)Nc2c(C(C)C)cccc2C(C)C)cc1 [compound 20]
inhibition in vivo at 25 mg/kg (cholesterol in serum [1]): 59% | IC50 [2]: 12 nM

CCCCCCCCc1ccc(NC(=O)Nc2c(Br)cccc2Br)cc1 [compound 4]
inhibition in vivo at 25 mg/kg (cholesterol in serum [1]): 55%
